{
  "source": "patent US20210378995A1",
  "about": "“METHODS AND TOPICAL PHARMACEUTICAL COMPOSITIONS FOR THE TREATMENT OF SKIN MICROVASCULAR DYSFUNCTION” (INSERM (INSTITUT NATIONAL DE LA SANTÉ ET DE LA RECHERCHE …, priority 2018, published 2021)",
  "key": {"[1]": {"assay": "Percutaneous passage of GSK2256294 topical formulations in Franz's cells on pig ear skin (Example 5)", "format": "in vitro ADME", "experimental": "First GSK2256294 topical formulations used DMSO and water 50/50% as vehicle. The experiments were conducted with Franz's cell using the skin of a pig's ear. The donor compartment was filled by an 20 μL of solution with a concentration between 100 to 400 μg/g of GSK2256294. The receptor medium was constituted by 4.5 mL of PBS, was at 32° C. and under magnetic stirring. Samples from the receptor compartment were collected at different times over 24 hours to determine the passage flow of GSK2256294. Second GSK2256294 topical formulation using alcohol, isopropanol, propylene glycol and DMSO 50/50% as vehicle with a GSK2256294's concentration at 200 μg/g were tested in the same conditions. Samples were then frozen at −20° C. The […] quantification was realized by HPLC/MS/MSS."}, "[2]": {"assay": "Solubility in paraffin wax vehicle", "format": "physicochemical", "details": "paraffin wax vehicle could not be used"}, "[3]": {"assay": "Percutaneous absorption using Franz's cells on pigskin, influence of the solvent (Example 1)", "quoted_text": "The skin of a pig's ears was chosen for the experiments as it is very similar to that of a human skin. […] The receptor compartment contained 4.5 mL of PBS and was under magnetic stirring. […] Samples were frozen at −20° C."}, "[4]": {"details": "GSK2256294 4 μg/mL, vehicle DMSO/water 50%/50%"}, "[5]": {"details": "GSK2256294 40 μg/mL, 'with DMSO'"}, "[6]": {"details": "GSK2256294 40 μg/mL, vehicle DMSO/water 50%/50%"}, "[7]": {"details": "GSK2256294, vehicle water at pH3"}, "[8]": {"details": "GSK2256294, vehicle water at pH3/alcohol 50/50%"}},
  "data": [
    {"smiles": "CNc1nc(C)nc(N[C@H]2CCC[C@@H](C(=O)NCc3ccc(C#N)cc3C(F)(F)F)C2)n1", "note": "[GSK2256294, (1R,3S)—N-[[4-cyano-2-(trifluoromethyl)phenyl]methyl]-3-[[4-methyl-6-(methylamino)-1,3,5-triazin-2-yl]amino]cyclohexane-1-carboxamide]", "values": [
      {"measurement": "flow between 4 and 12 h", "setting": "[1]; DMSO/water 50/50%, GSK2256294 200 μg/g", "result": 64.83, "unit": "ng/h/cm^2"},
      {"measurement": "flow between 4 and 12 h", "setting": "[1]; DMSO/water 50/50%, lower end of GSK2256294 concentration range 100 to 400 μg/g", "result": 41.92, "unit": "ng/h/cm^2"},
      {"measurement": "flow between 4 and 12 h", "setting": "[1]; DMSO/water 50/50%, upper end of GSK2256294 concentration range 100 to 400 μg/g", "result": 102.26, "unit": "ng/h/cm^2"},
      {"measurement": "flow between 4 and 12 h", "setting": "[1]; alcohol/water 50/50%, GSK2256294 200 μg/g", "result": 55.9, "unit": "ng/h/cm^2"},
      {"measurement": "flow between 4 and 12 h", "setting": "[1]; isopropanol/water 50/50%, GSK2256294 200 μg/g", "result": 74.38, "unit": "ng/h/cm^2"},
      {"measurement": "flow between 4 and 12 h", "setting": "[1]; propylene glycol/water 50/50%, GSK2256294 200 μg/g", "result": 48.49, "unit": "ng/h/cm^2"},
      {"measurement": "solubility in paraffin wax", "setting": "[2]", "result": "lack of solubility"},
      {"measurement": "absorbed and released by the pigskin over 24 hrs", "setting": "[3]; [4]", "result": 10.5, "unit": "%"},
      {"measurement": "percutaneous absorption flow", "setting": "[3]; [4]", "result": 21.9, "unit": "ng/cm^2/h"},
      {"measurement": "passage rate", "setting": "[3]; [5]", "result": 7.04, "unit": "%"},
      {"measurement": "percutaneous absorption flow", "setting": "[3]; [5]", "result": 134.1, "unit": "ng/cm^2/h"},
      {"measurement": "absorbed and released by the pigskin over 24 hrs", "setting": "[3]; [6]", "result": 9.02, "unit": "%"},
      {"measurement": "percutaneous absorption flow", "setting": "[3]; [6]", "result": 167.4, "unit": "ng/cm^2/h"},
      {"measurement": "percutaneous absorption flow", "setting": "[3]; GSK2256294, vehicle PEG400", "result": "No flow"},
      {"measurement": "passage rate", "setting": "[3]; [7]", "result": 8.31, "unit": "%"},
      {"measurement": "percutaneous absorption flow", "setting": "[3]; [7]", "result": 167.4, "unit": "ng/cm^2/h"},
      {"measurement": "passage rate", "setting": "[3]; [8]", "result": 3.52, "unit": "%"},
      {"measurement": "percutaneous absorption flow", "setting": "[3]; [8]", "result": 38.6, "unit": "ng/cm^2/h"}
    ]}
  ]
}
